Results as given in patent publication US20160031937A1, “NEURAL REGENERATION PEPTIDES AND USES THEREFOR” (CURONZ HOLDINGS COMPANY LIMITED, priority 2013, published 2016).
Square brackets hold non-standard residues; d marks the D form. Ends that are not written are not given here. Aib = CC(C)(N)C(=O)O

Tests used:
[1] = tested on: NRP 13q13.2 gene expression; assay: NRP 13q13.2 gene expression by semi-quantitative RT-PCR in NTERA-2 cells; format: cell-based, human
Procedure: mRNA was extracted according to standard procedures (TRIzole® from Invitrogen or RNeasy Mini from Qiagen). The mRNA fraction was subjected to DNase I treatment using DNaseI incubation mixture. For this treatment, 10 μl DNaseI stock plus 70 μl buffer was added to mRNA preparation and incubated for 5 minutes at room temperature. cDNA synthesis was then carried out according to standard procedures (SuperScript® III Reverse Transcriptase from Invitrogen).
The optimized RT-PCR strategy used an intron-spanning forward primer with high GC-content and TM (78° C.) and a reverse primer with a lower TM (60° C.). These primers are shown in FIG. 10, and also further below. The mRNA was treated with DNase I before starting the synthesis of cDNA, as the intron-spanning primer only bridged an intron of 9 nucleic acids.
The expected RT-PCR product was 221 by in length. PCR conditions included annealing at 58° C. and 36 total cycles. Samples were incubated at 94° C. for 5 minutes as the start of the GeneAmp® cycler operation. The 36 cycles included the sequence: 94° C. for 30 seconds; 58° C. for 30 seconds; 72° C. for 30 seconds; followed by cooling to 15° C. at the end of the PCR.
The PCR-reaction included: 10× buffer (2.50 μl), 50 mM MgCl2 (0.75 μl), 10 mM dNTPs (0.50 μl), Primer 1 (0.50 μl), Primer 2 (0.50 μl), Taq Polymerase (0.10 μl), cDNA (1.00 μl ), H2O (19.15 μl), to yield a total volume of 25.00 μl. Taq DNA Polymerase was sourced from Invitrogen (Platinum® Taq Polymerase).
NTERA-2 (ATCC No. CRL-1973) is a human carcinoma derived pluripotent cell line that has only single copies of chromosome 1, 10, 11 and 13. This was the impetus for using 36 cycles of PCR for detection of NRP expression.
Undifferentiated NTERA-2 cells were obtained. Frozen stocks were prepared with a maximum of 2 passages. NRP expression could be assessed in cells having up to 4-5 passages. The cell culture medium included ATCC-formulated DMEM plus 10% FCS. The medium was exchanged every 2-3 days. For passaging, cells were dislodges by scraping and then transferred into 75cm^2 flasks. An initial seeding included 5 million cells in 12-15 ml of cell medium per flask.
Subcultivation was performed for gene expression tests. For subcultivation, cells were dislodged by scraping and then gathered by centrifugation at 1500 rpm for 7 minutes, at 4° C. The media was discarded and the cells were resuspended in 16 ml fresh DMEM/10%FBS. The expected yield was 12-15 million cells in the flask. Thus, the resuspended cells were at a concentration of about 1 million cells per ml.
For passage 3, the remaining 4 ml of cell suspension plus 8 ml culture medium was transferred into new T75 cultivation flask.
[…] All conditions were applied for 15 minutes, 30 minutes, and 60 minutes.
mRNA was then collected. Cells were washed once at the end of the treatment with subsequent cell scraping. Cells were passed through 25-gauge needle into a 15 ml falcon tube. Falcon tube cell content was aspirated, washed once with DMEM, followed by trypsinization. […]
Centrifugation was carried out for 7 minutes at 1500 rpm, at 4° C. The pellets were then ready to be stored either at -80° C. or in liquid nitrogen until RNA extraction.
For RNA extraction, thawed cell pellets were prepared according to manufacturer's instructions (RNeasy Mini from Qiagen). RNA concentration was determined by NanoDropTM. […] For synthesis of sufficient quantities of cDNA, the RNA concentration in the cell samples was ensured to be between 10-20 ng/μl. […]

W9-hESCs = assay: TUNEL staining for apoptotic cell death after OGD injury; format: cell-based, human; settings: 24 hours, 100 pM NRP2945
Procedure: Neuronal differentiation was achieved using the noggin induction method described for mouse neurospheres as adapted by Dottori for human neurospheres (Dottori & Pera, 2007). The colonies were maintained at 37° C., with 5% CO2 in hESC medium supplemented with 500 ng/ml of Noggin for 14 days while replacing Noggin every other day.
At this point, the cells were washed with PBS and the colonies were again mechanically dissociated, but this time the central (differentiated) part of the colony was also cut into smaller pieces using a 26-gauge needle. The pieces were transferred to individual wells in a low adherent 96-well plate containing Neurobasal®A (NBM) (Invitrogen) supplemented with 1× X B-27® (Invitrogen) and 1× N-2 (Invitrogen) 20 ng/ml human recombinant EGF and 20 ng/ml human recombinant bFGF (Pharmacia). […]
To maintain isoosmotic pressure conditions, 25 mM 2-deoxy-D-glucose was added to NBM-AO medium and equilibrated for 30 minutes at room temperature before the initial media change as described above. […] Culture supernatant was removed after this 4 hour period and stored at 4° C. until analysed for lactate dehydrogenase (LDH) activity. […]
Tunnel positive cells, wells were imaged and the images re-coded independently before quantitation. No additional blinding was performed for the machine read LDH assay process.

[2] = normoxic NTERA-2 cells, 1 pM NRP2945

## Gly Arg Arg Ala Ala Pro Gly Arg Aib Gly Gly (GRRAAPGR[Aib]GG) [NRP2945, synthetic 11-mer peptidomimetic optimized for stability and pharmacokinetics]
[1]; NTERA-2 cells, 100 pM NRP2945
  time to stimulated endogenous NRP gene expression after administration: 5 to 10 min
[1]; NTERA-2 cells, 0.5 mM 3-NP with simultaneous 1 pM NRP2945
  NRP 13q13.2 gene expression during oxidative stress: up-regulated after 15 minutes and stays elevated during the period of analysis
[1]; human NTERA-2 cells, autocrine, unpublished results
  time frame of exposure for up-regulation of endogenous NRP gene expression (13q13.2): ≤ 10 min
[1]; [2]
  gene expression of NRP 13q13.2: highly elevated after only 15 minutes
  time of peak NRP 13q13.2 gene expression after peptide contact: 30 min
W9-hESCs
  W9-hESCs protected from apoptotic cell death (TUNEL): 23%
